Data on 4 compounds can be found in BindingDB's records for doi:10.7270/Q2G44NQ4 (Emory University, 2007).

One may read the IC50 as the point on the concentration scale where inhibition reaches its midpoint.

In this test the target is Mothers against decapentaplegic homolog 3 (Homo sapiens, UniProt P84022). Briefly: inhibitors of SMAD-driven TGF-beta signaling – dose response (AID 715).
Sequence of Mothers against decapentaplegic homolog 3 (P84022 whole entry): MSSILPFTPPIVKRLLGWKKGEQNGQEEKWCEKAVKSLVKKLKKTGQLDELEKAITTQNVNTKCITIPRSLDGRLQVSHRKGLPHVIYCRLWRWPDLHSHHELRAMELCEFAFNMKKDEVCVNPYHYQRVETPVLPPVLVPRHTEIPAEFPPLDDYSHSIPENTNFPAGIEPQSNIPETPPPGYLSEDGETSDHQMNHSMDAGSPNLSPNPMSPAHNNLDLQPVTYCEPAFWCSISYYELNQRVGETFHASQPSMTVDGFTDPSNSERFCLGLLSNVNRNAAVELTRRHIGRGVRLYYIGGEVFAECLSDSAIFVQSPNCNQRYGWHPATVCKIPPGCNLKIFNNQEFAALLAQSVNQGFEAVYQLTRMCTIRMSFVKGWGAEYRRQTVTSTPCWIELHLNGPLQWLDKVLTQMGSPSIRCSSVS
With `CC1(C)CC(=O)C(C2(O)C(=O)NC(=O)NC2=O)C(=O)C1` [5-(4,4-dimethyl-2-oxidanyl-6-oxidanylidene-cyclohexen-1-yl)-5-oxidanyl-1,3-diazinane-2,4,6-trione], the half-inhibitory concentration (IC50) was determined as 2.3 µM. In other words, the single-digit micromolar range.

`Cc1ccc(-[n+]2c(O)csc2[C-](C(Cl)=C(Cl)Cl)[N+](=O)[O-])cc1` [(2E)-3-(4-methylphenyl)-2-[2,3,3-tris(chloranyl)-1-nitro-prop-2-enylidene]-1,3-thiazolidin-4-one] came in with an IC50 of 27.7 µM.

`O=C1C=CC(CN=Nc2nccs2)C=C1[N+](=O)[O-]` (centres undefined) [(4Z)-2-nitro-4-[(2-thiazolylhydrazo)methylidene]-1-cyclohexa-2,5-dienone] came in with a concentration for half-maximal inhibition (IC50) of 30.9 µM.

In turn, `CCN(CC)P(=O)(NC(=O)C(Cl)(Cl)Cl)N(CC)CC` [MLS000564159] registered a 50% inhibitory concentration (IC50) of 14.1 µM.
